# Legend:
# [1] = QT / tQT effects and plasma levels; format: in vivo
# Source text: The compounds described herein, including solithromycin, are effective in treating host animals with high cardiovascular disease risk.
# [2] = tested on: BLM-induced pulmonary fibrosis model mice; test: Bleomycin-induced lung injury: BALF analysis, body weight; format: in vivo; conditions: for BALF Eosinophil / BALF Lymphocytes / BALF Macrophages / BALF Neutrophil / BALF Total cells: oral q.d. day −2 to 6
# Method: Bleomycin-Induced Lung Injury. Lung inflammation is induced in female mice by a single intratracheal administration of bleomycin. Twenty mice are divided into two groups. […] It is to be understood herein that 100 mg/kg in mice is generally considered to be equivalent to a 450-500 mg, such as 480 mg, dose in humans. Animals are sacrificed on Day 7.
# Pathogen-free 7 weeks old female C57BL/6J mice are obtained from CLEA Japan (Tokyo, Japan) and allowed to acclimate at least 6 days. On day 0, twenty mice are induced to develop pulmonary fibrosis by a single intratracheal administration of bleomycin sulphate (BLM, Nippon Kayaku, Japan) in 0.9% saline in a volume of 50 μL per animal using a Microsprayer® (Penn-Century, USA). Individual body weight is measured daily during the experiment period. Survival, clinical signs and behavior of mice is monitored daily.
# Solithromycin Reduces Inflammation In Mice Caused By Bleomycin-Induced Lung Injury. Pulmonary fibrosis is a problem in the management of patients who have received chemotherapy for malignancies particularly with regimens that contain bleomycin (BLM), methotrexate, cyclophosphamide, and many new agents. These patients are susceptible to pulmonary infections as well as to inflammation from pulmonary injury. […] The effects of solithromycin on the ability to prevent lung inflammation and fibrosis is described in a bleomycin induced-lung inflammation and fibrosis model. Group 1 (BLM-Vehicle): Ten BLM-induced pulmonary fibrosis model mice are orally administered vehicle (Carboxymethyl cellulose) at a volume of 10 mL/kg once daily from day −2 (two days before BLM administration) to day 6. […]
# BALF samples were collected by flushing the lung via the trachea with sterile PBS three times (0.8 mL each). The first lavage was kept separate from the other two. BALF was centrifuged at 1,000×g for 3 minutes at 4° C. and the supernatant was collected and stored at −80° C. until use. The cell pellet from the first fraction and the remaining fractions of lavage fluid were pooled. Total cell number of BALF was counted with a hemocytometer and the cell differentials were determined by cytospin preparation stained with Diff-Quick (Sysmex, Japan). A differential cell count was performed on up to about 200 cells.
# MMP-9 in the BALF was quantified by the Mouse Total MMP-9 Quantikine ELISA Kit (R&D Systems, USA).
# Analyses of BALF (bronchoalveolar lavage fluid). The cells in BALF are counted with a hemocytometer, and cell differentials are determined in cytospin preparations stained with Diff-Quik (Sysmex, Japan) MMP-9 in the supernatants from BALF are quantified by an enzyme-linked immunosorbent assay (ELISA; Cat# MMPT90, R&D Systems, USA). Histopathological assays for lung sections are performed according to standard methods. Masson's Trichrome staining and estimation of Ashcroft Score includes HE staining. Gene expression assays using total RNA from the lung are obtained using real-time RT-PCR analyses performed for TNF-α, MCP-1 and MMP-9.
# [3] = bleomycin mice, heading says 50 mg/kg q.d.
# [4] = bleomycin mice, heading says 50 mg/kg q.d., listed as SOLI
smiles,measurement,setting,value
CC[C@H]1OC(=O)[C@@](C)(F)C(=O)[C@H](C)[C@@H](O[C@@H]2O[C@H](C)C[C@H](N(C)C)[C@H]2O)[C@](C)(OC)C[C@@H](C)C(=O)[C@H](C)[C@H]2N(CCCCn3cc(-c4cccc(N)c4)nn3)C(=O)O[C@]12C [solithromycin],Plasma levels achieved,[1]; PK analysis in QT evaluation,2000 to 3000 ng/mL
same,QT or tQT prolongation,[1]; dosed orally or intravenously,does not show any QT or tQT prolongation
same,MMP-9 expression,"[2]; bleomycin mice BALF (ELISA), heading says 50 mg/kg q.d.",decreasing trend
same,Body weight changes compared to vehicle group,"[2]; bleomycin mice, any day and day of sacrifice",no significant differences
same,BALF Eosinophil,[2]; [3],significantly decreased
same,BALF Lymphocytes,[2]; [3],significantly decreased
same,BALF Macrophages,[2]; [3],no significant difference
same,BALF Neutrophil,[2]; [3],significantly decreased
same,BALF Total cells,[2]; [3],significantly decreased
same,BALF Eosinophil,[2]; [4],0.3 ± 0.2 × 10^4
same,BALF Lymphocytes,[2]; [4],3.9 ± 1.9 × 10^4
same,BALF Macrophages,[2]; [4],16.9 ± 9.6 × 10^4
same,BALF Neutrophil,[2]; [4],0.7 ± 0.4 × 10^4
same,BALF Total cells,[2]; [4],2.2 ± 1.2 × 10^5
